Reference: ChEMBL document CHEMBL5154783, “Design, synthesis, and evaluation of novel 3-thiophene derivatives as potent fungistatic and fungicidal reagents based on a conformational restriction strategy” (Eur J Med Chem, 2022)
Converted amounts (≈) assume the structure as drawn. The source made the active and inactive calls. The calls are words filed in the database; no cut-off is given here.

Columns and labels:
Candida albicans [1] = assay: Antifungal activity against Candida albicans ATCC SC5314 assessed as fungal growth inhibition by CLSI based serial microbroth dilution method; assay type: functional
Candida albicans [2] = assay: Antifungal activity against Candida albicans CPCC400616 assessed as fungal growth inhibition by CLSI based serial microbroth dilution method; assay type: functional
Candida tropicalis = assay: Antifungal activity against Candida tropicalis CGMCC 2.3739 assessed as fungal growth inhibition by CLSI based serial microbroth dilution method; assay type: functional
Cryptococcus neoformans = assay: Antifungal activity against Cryptococcus neoformans CGMCC 2.3161 assessed as fungal growth inhibition by CLSI based serial microbroth dilution method; assay type: functional
Candida parapsilosis = assay: Antifungal activity against Candida parapsilosis GIM 2.190 assessed as fungal growth inhibition by CLSI based serial microbroth dilution method; assay type: functional; details: Lodderomyces parapsilosis
Nakaseomyces glabratus = assay: Antifungal activity against Candida glabrata clinical isolate assessed as fungal growth inhibition by CLSI based serial microbroth dilution method; assay type: functional
Pichia kudriavzevii = assay: Antifungal activity against Candida krusei GIM 2.1 assessed as fungal growth inhibition by CLSI based serial microbroth dilution method; assay type: functional
Aspergillus fumigatus = assay: Antifungal activity against Aspergillus fumigatus CGMCC 3.7795 assessed as fungal growth inhibition by CLSI based serial microbroth dilution method; assay type: functional
Candida albicans [3] = assay: Antifungal activity against FLC and ITC-resistant Candida albicans 17 assessed as fungal growth inhibition by CLSI based serial microbroth dilution method; assay type: functional
Candida albicans [4] = assay: Antifungal activity against FLC-resistant Candida albicans CaR assessed as fungal growth inhibition by CLSI based serial microbroth dilution method; assay type: functional
Candida albicans [5] = assay: Antifungal activity against FLC-resistant Candida albicans 901 assessed as fungal growth inhibition by CLSI based serial microbroth dilution method; assay type: functional
Candida albicans [6] = assay: Antifungal activity against FLC-resistant Candida albicans 904 assessed as fungal growth inhibition by CLSI based serial microbroth dilution method; assay type: functional
Candida albicans [7] = assay: Antifungal activity against FLC-resistant Candida albicans 632 assessed as fungal growth inhibition by CLSI based serial microbroth dilution method; assay type: functional
Candida albicans [8] = assay: Antifungal activity against FLC-resistant Candida albicans 100 assessed as fungal growth inhibition by CLSI based serial microbroth dilution method; assay type: functional
Candida albicans [9] = assay: Antifungal activity against FLC-resistant Candida albicans 103 assessed as fungal growth inhibition by CLSI based serial microbroth dilution method; assay type: functional
Candida albicans [10] = assay: Antifungal activity against FLC-resistant Candida albicans 311 assessed as fungal growth inhibition by CLSI based serial microbroth dilution method; assay type: functional
[11] = Cytotoxicity against human THLE-2 cells assessed as reduction in cell viability incubated for 96 hrs by MTT assay; assay type: toxicity, cell-based
Cell membrane [12] = assay: Disruption of membrane integrity in Candida albicans ATCC SC5314 assessed as rupture of fungal cells at 16 ug/ml incubated for 48 hrs by transmission electron microscopy; assay type: subcellular; details: dose 16.0 µg/ml
Cell membrane [13] = assay: Disruption of membrane integrity in Candida albicans ATCC SC5314 assessed as cell membrane damage at 16 ug/ml incubated for 48 hrs by transmission electron microscopy; assay type: subcellular; details: dose 16.0 µg/ml
Cell membrane [14] = assay: Disruption of membrane integrity in Candida albicans ATCC SC5314 assessed as endogenous substances leakage at 16 ug/ml incubated for 48 hrs by transmission electron microscopy; assay type: subcellular; details: dose 16.0 µg/ml
Candida albicans [15] = assay: Antibiofilm activity against Candida albicans […] assessed as inhibition of […] metabolism within the biofilm measured after 3 hrs by XTT reduction assay; assay type: functional
Candida albicans [16] = assay: Antibiofilm activity against Candida albicans […] assessed as inhibition of […] metabolism within the biofilm measured after 6 hrs by XTT reduction assay; assay type: functional
Candida albicans [17] = assay: Antibiofilm activity against Candida albicans […] assessed as inhibition of […] metabolism within the biofilm measured after 18 hrs by XTT reduction assay; assay type: functional
Candida albicans [18] = assay: Antibiofilm activity against Candida albicans […] assessed as inhibition of […] metabolism activity in the biofilm measured after 24 hrs by XTT reduction assay; assay type: functional
Candida albicans [19] = assay: Antibiofilm activity against Candida albicans […] assessed as inhibition of […] metabolism activity in the biofilm measured after 48 hrs by XTT reduction assay; assay type: functional
Candida albicans [20] = assay: Fungicidal activity against Candida albicans CPCC400616 measured after 48 hrs; assay type: functional
A549 = assay: Cytotoxicity against human A549 cells assessed as reduction in cell viability incubated for 96 hrs by MTT assay; assay type: functional, cell-based; details: A549, 96 h
MCF7 = assay: Cytotoxicity against human MCF7 cells assessed as reduction in cell viability incubated for 96 hrs by MTT assay; assay type: functional, cell-based; details: MCF7, 96 h
[21] = Cytotoxicity against human HepG2 cells assessed as reduction in cell viability incubated for 96 hrs by MTT assay; assay type: toxicity, cell-based
RAW264.7 = assay: Cytotoxicity against mouse RAW264.7 cells assessed as reduction in cell viability incubated for 96 hrs by MTT assay; assay type: functional, cell-based; details: RAW264.7, 96 h
[22] = Stability of the compound in human plasma assessed as parent compound remaining after […] by LC-MS/MS analysis; assay type: ADME, cell-free; details: read-out: Stability
[23] = Stability of the compound in human plasma assessed as parent compound remaining after 120 hrs by LC-MS/MS analysis; assay type: ADME, cell-free; details: read-out: Stability
[24] = Stability of the compound in human plasma assessed as half life measured after […] by LC-MS/MS analysis; assay type: ADME, cell-free
Cell membrane [25] = assay: Disruption of membrane integrity in Candida albicans ATCC SC5314 assessed as cell wall damage at 16 ug/ml incubated for 48 hrs by transmission electron microscopy; assay type: subcellular; details: dose 16.0 µg/ml
[26] = molecular target: T1, Lanosterol 14-alpha demethylase (Candida albicans (strain SC5314 / ATCC MYA-2876) (Yeast), UniProt P10613); assay: Inhibition of CYP51 in Candida albicans ATCC SC5314 assessed as lanosterol level at 0.25 ug/ml measured after 18 hrs by GC-MS analysis relative to control; design: scale not given: the % may be the effect or the level left; details: at 0.25 µg/mL
[27] = molecular target: T1, Lanosterol 14-alpha demethylase; assay: Inhibition of CYP51 in Candida albicans ATCC SC5314 assessed as ergosterol level at 0.25 ug/ml measured after 18 hrs by GC-MS analysis (reference value: 96.93 %); design: scale not given: the % may be the effect or the level left; details: at 0.25 µg/mL
[28] = molecular target: T1, Lanosterol 14-alpha demethylase; assay: Inhibition of CYP51 in Candida albicans ATCC SC5314 assessed as eburicol level at 0.25 ug/ml measured after 18 hrs by GC-MS analysis relative to control; design: scale not given: the % may be the effect or the level left; details: at 0.25 µg/mL
[29] = molecular target: T1, Lanosterol 14-alpha demethylase; assay: Inhibition of CYP51 in Candida albicans ATCC SC5314 assessed as 14alpha-methylergosta-8,24(28)-dien-3beta-6alpha-diol level at 0.25 ug/ml measured after 18 hrs by GC-MS analysis relative to control; design: scale not given: the % may be the effect or the level left; details: at 0.25 µg/mL
[30] = molecular target: T1, Lanosterol 14-alpha demethylase; assay: Inhibition of CYP51 in Candida albicans ATCC SC5314 assessed as unknown sterol level at 0.25 ug/ml measured after 18 hrs by GC-MS analysis (reference value: 3.07 %); design: scale not given: the % may be the effect or the level left; details: at 0.25 µg/mL

T1 sequence (P10613 whole entry): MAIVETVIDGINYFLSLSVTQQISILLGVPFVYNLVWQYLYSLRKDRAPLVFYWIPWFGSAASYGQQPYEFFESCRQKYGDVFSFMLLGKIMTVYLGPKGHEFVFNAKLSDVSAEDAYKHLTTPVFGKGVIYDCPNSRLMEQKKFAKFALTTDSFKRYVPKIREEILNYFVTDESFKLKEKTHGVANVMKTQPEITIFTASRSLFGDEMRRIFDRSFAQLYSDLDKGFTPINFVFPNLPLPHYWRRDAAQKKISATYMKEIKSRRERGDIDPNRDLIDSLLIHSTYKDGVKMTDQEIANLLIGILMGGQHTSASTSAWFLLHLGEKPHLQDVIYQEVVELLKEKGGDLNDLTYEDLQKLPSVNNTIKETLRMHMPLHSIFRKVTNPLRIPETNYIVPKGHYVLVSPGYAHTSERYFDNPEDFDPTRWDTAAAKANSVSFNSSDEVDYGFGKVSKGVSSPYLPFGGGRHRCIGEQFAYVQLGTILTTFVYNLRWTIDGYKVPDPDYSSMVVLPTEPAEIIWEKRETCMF

Structure (SMILES)	MIC (Candida albicans [1]) [µg/mL]	MIC (Candida albicans [2]) [µg/mL]	MIC (Candida tropicalis) [µg/mL]	MIC (Cryptococcus neoformans) [µg/mL]	MIC (Candida parapsilosis) [µg/mL]	MIC (Nakaseomyces glabratus) [µg/mL]	MIC (Pichia kudriavzevii) [µg/mL]	MIC (Aspergillus fumigatus) [µg/mL]	MIC (Candida albicans [3]) [µg/mL]	MIC (Candida albicans [4]) [µg/mL]	MIC (Candida albicans [5]) [µg/mL]	MIC (Candida albicans [6]) [µg/mL]	MIC (Candida albicans [7]) [µg/mL]	MIC (Candida albicans [8]) [µg/mL]	MIC (Candida albicans [9]) [µg/mL]	MIC (Candida albicans [10]) [µg/mL]	IC50 at 96 h [11] [µM]	Activity (Cell membrane [12])	Activity (Cell membrane [13])	Activity (Cell membrane [14])	other results
Fc1ccccc1CC1(Cn2ccnc2)COC(c2ccc(-c3ccsc3)cc2)=N1 (configuration not stated)	0.125 (≈ 0.299 µM)	0.5 (≈ 1.2 µM)	0.125 (≈ 0.299 µM)	16 (≈ 38.3 µM)	0.5 (≈ 1.2 µM)	16 (≈ 38.3 µM)	1 (≈ 2.4 µM)	32 (≈ 76.6 µM)	8 (≈ 19.2 µM)	32 (≈ 76.6 µM)	2 (≈ 4.79 µM)	2 (≈ 4.79 µM)	8 (≈ 19.2 µM)	2 (≈ 4.79 µM)	1 (≈ 2.4 µM)	4 (≈ 9.58 µM)					
c1ccc(CC2(Cn3ccnc3)COC(c3ccc(-c4ccsc4)cc3)=N2)cc1 (configuration not stated)	0.5 (≈ 1.25 µM)	0.25 (≈ 0.626 µM)	0.25 (≈ 0.626 µM)	8 (≈ 20 µM)	0.5 (≈ 1.25 µM)	> 64	> 64	16 (≈ 40 µM)	4 (≈ 10 µM)	32 (≈ 80.1 µM)	4 (≈ 10 µM)	2 (≈ 5.01 µM)	16 (≈ 40 µM)	2 (≈ 5.01 µM)	2 (≈ 5.01 µM)	4 (≈ 10 µM)					
Fc1cccc(F)c1CC1(Cn2ccnc2)COC(c2ccc(-c3ccsc3)cc2)=N1 (configuration not stated)	0.06 (≈ 0.138 µM)	0.015 (≈ 0.0344 µM)	0.015 (≈ 0.0344 µM)	0.125 (≈ 0.287 µM)	0.125 (≈ 0.287 µM)	0.06 (≈ 0.138 µM)	0.25 (≈ 0.574 µM)	8 (≈ 18.4 µM)	8 (≈ 18.4 µM)	1 (≈ 2.3 µM)	0.5 (≈ 1.15 µM)	2 (≈ 4.59 µM)	4 (≈ 9.18 µM)	4 (≈ 9.18 µM)	2 (≈ 4.59 µM)	8 (≈ 18.4 µM)	22.6	Active	Active	Active	MIC50 (Candida albicans [15]): 0.25 µg/mL (≈ 0.574 µM); MIC50 (Candida albicans [16]): 0.5 µg/mL (≈ 1.15 µM); MIC50 (Candida albicans [17]): 4 µg/mL (≈ 9.18 µM); MIC50 (Candida albicans [18]): 32 µg/mL (≈ 73.5 µM); MIC50 (Candida albicans [19]): > 64 µg/mL; MFC (Candida albicans [20]): 1 µg/mL (≈ 2.3 µM); IC50 (A549): > 50 µM; IC50 (MCF7): > 50 µM; IC50 at 96 h [21]: 34.2 µM; IC50 (RAW264.7): 7.58 µM; remaining [22]: 88.5%; remaining at 120 h [23]: 90.1%; half-life [24]: > 4.8 h; Activity (Cell membrane [25]): Active
OC(Cn1cncn1)(Cn1cncn1)c1ccc(F)cc1F [FLUCONAZOLE]	0.5 (≈ 1.63 µM)	1 (≈ 3.27 µM)	0.5 (≈ 1.63 µM)	4 (≈ 13.1 µM)	2 (≈ 6.53 µM)	4 (≈ 13.1 µM)	8 (≈ 26.1 µM)	> 64	> 64	> 64	64 (≈ 209 µM)	32 (≈ 104 µM)	> 64	> 64	> 64	> 64	> 50	Active	Active	Active	Activity [26]: 34.42%; Activity [27]: 3.15%; Activity [28]: 29.02%; Activity [29]: 22.35%; Activity [30]: 1.59%; MIC50 (Candida albicans [15]): 16 µg/mL (≈ 52.2 µM); MIC50 (Candida albicans [16]): 32 µg/mL (≈ 104 µM); MIC50 (Candida albicans [17]): 64 µg/mL (≈ 209 µM); MIC50 (Candida albicans [18]): > 64 µg/mL; MIC50 (Candida albicans [19]): > 64 µg/mL; MFC (Candida albicans [20]): > 64 µg/mL; IC50 (A549): > 50 µM; IC50 (MCF7): > 50 µM; IC50 at 96 h [21]: > 50 µM; IC50 (RAW264.7): > 50 µM; Activity (Cell membrane [25]): Active
